Measurements from article PMC9262584 (2022).

How the values were obtained:
Experiment in all cases: ITC
Conditions in all cases: 50 mM KCl, 5 mM MgCl2 (RNA wash buffer); 50 mM Bis-Tris pH 6.1; individual ITC conditions in SI Figures S11/S12
[1] = test system: pilM^75 (RNA, riboswitch) GAUAUCGACAAUACUAAACCAUCCGCGAGGGUGGGACGGAAAGCCUACAGGGUCUCUCUGAGACAGCCGGGAUGC
[2] = test system: pilM^14-75 (RNA, riboswitch) GCUAAACCAUCCGCGAGGGUGGGACGGAAAGCCUACAGGGUCUCUCUGAGACAGCCGGGAUGC
[3] = test system: pilM^77 (RNA, riboswitch) GAUAUCGACAAUACUAAACCAUCCGCGAGGGUGGGACGGAAAGCCUACAGGGUCUCUCUGAGACAGCCGGGAUGCCG
[4] = test system: pilM^79 (RNA, riboswitch) GAUAUCGACAAUACUAAACCAUCCGCGAGGGUGGGACGGAAAGCCUACAGGGUCUCUCUGAGACAGCCGGGAUGCCGAA
[5] = test system: pilM^80 (RNA, riboswitch) GAUAUCGACAAUACUAAACCAUCCGCGAGGGUGGGACGGAAAGCCUACAGGGUCUCUCUGAGACAGCCGGGAUGCCGAAA
[6] = test system: pilM^82 (RNA, riboswitch) GAUAUCGACAAUACUAAACCAUCCGCGAGGGUGGGACGGAAAGCCUACAGGGUCUCUCUGAGACAGCCGGGAUGCCGAAAUA
[7] = test system: pilM^83 (RNA, riboswitch) GAUAUCGACAAUACUAAACCAUCCGCGAGGGUGGGACGGAAAGCCUACAGGGUCUCUCUGAGACAGCCGGGAUGCCGAAAUAU
[8] = test system: pilM^84 (RNA, riboswitch) GAUAUCGACAAUACUAAACCAUCCGCGAGGGUGGGACGGAAAGCCUACAGGGUCUCUCUGAGACAGCCGGGAUGCCGAAAUAUC
[9] = test system: pilM^88 (RNA, riboswitch) GAUAUCGACAAUACUAAACCAUCCGCGAGGGUGGGACGGAAAGCCUACAGGGUCUCUCUGAGACAGCCGGGAUGCCGAAAUAUCACAA
[10] = test system: pilM^91 (RNA, riboswitch) GAUAUCGACAAUACUAAACCAUCCGCGAGGGUGGGACGGAAAGCCUACAGGGUCUCUCUGAGACAGCCGGGAUGCCGAAAUAUCACAAUUC
[11] = test system: pilM^93 (RNA, riboswitch) GAUAUCGACAAUACUAAACCAUCCGCGAGGGUGGGACGGAAAGCCUACAGGGUCUCUCUGAGACAGCCGGGAUGCCGAAAUAUCACAAUUCGU
[12] = test system: pilM^95 (RNA, riboswitch) GAUAUCGACAAUACUAAACCAUCCGCGAGGGUGGGACGGAAAGCCUACAGGGUCUCUCUGAGACAGCCGGGAUGCCGAAAUAUCACAAUUCGUGA
[13] = test system: pilM^96 (RNA, riboswitch) GAUAUCGACAAUACUAAACCAUCCGCGAGGGUGGGACGGAAAGCCUACAGGGUCUCUCUGAGACAGCCGGGAUGCCGAAAUAUCACAAUUCGUGAU
[14] = test system: pilM^97 (RNA, riboswitch) GAUAUCGACAAUACUAAACCAUCCGCGAGGGUGGGACGGAAAGCCUACAGGGUCUCUCUGAGACAGCCGGGAUGCCGAAAUAUCACAAUUCGUGAUG
[15] = test system: pilM^99 (RNA, riboswitch) GAUAUCGACAAUACUAAACCAUCCGCGAGGGUGGGACGGAAAGCCUACAGGGUCUCUCUGAGACAGCCGGGAUGCCGAAAUAUCACAAUUCGUGAUGCU
[16] = test system: pilM^100 (RNA, riboswitch) GAUAUCGACAAUACUAAACCAUCCGCGAGGGUGGGACGGAAAGCCUACAGGGUCUCUCUGAGACAGCCGGGAUGCCGAAAUAUCACAAUUCGUGAUGCUC
[17] = test system: pilM^101 (RNA, riboswitch) GAUAUCGACAAUACUAAACCAUCCGCGAGGGUGGGACGGAAAGCCUACAGGGUCUCUCUGAGACAGCCGGGAUGCCGAAAUAUCACAAUUCGUGAUGCUCG
[18] = test system: pilM^102 (RNA, riboswitch) GAUAUCGACAAUACUAAACCAUCCGCGAGGGUGGGACGGAAAGCCUACAGGGUCUCUCUGAGACAGCCGGGAUGCCGAAAUAUCACAAUUCGUGAUGCUCGG
[19] = test system: pilM^103 (RNA, riboswitch) GAUAUCGACAAUACUAAACCAUCCGCGAGGGUGGGACGGAAAGCCUACAGGGUCUCUCUGAGACAGCCGGGAUGCCGAAAUAUCACAAUUCGUGAUGCUCGGU
[20] = test system: pilM^105 (RNA, riboswitch) GAUAUCGACAAUACUAAACCAUCCGCGAGGGUGGGACGGAAAGCCUACAGGGUCUCUCUGAGACAGCCGGGAUGCCGAAAUAUCACAAUUCGUGAUGCUCGGUCC
[21] = test system: pilM^106 (RNA, riboswitch) GAUAUCGACAAUACUAAACCAUCCGCGAGGGUGGGACGGAAAGCCUACAGGGUCUCUCUGAGACAGCCGGGAUGCCGAAAUAUCACAAUUCGUGAUGCUCGGUCCC
[22] = test system: pilM^109 (RNA, riboswitch) GAUAUCGACAAUACUAAACCAUCCGCGAGGGUGGGACGGAAAGCCUACAGGGUCUCUCUGAGACAGCCGGGAUGCCGAAAUAUCACAAUUCGUGAUGCUCGGUCCCGGC

## Nc1nc2c(ncn2[C@@H]2O[C@@H]3COP(=O)(O)O[C@H]4[C@@H](O)[C@H](n5cnc6c(N)ncnc65)O[C@@H]4COP(=O)(O)O[C@H]3[C@H]2O)c(=O)[nH]1
[1]
  KD: > >100 μM
[2]
  KD: 0.012 ± 0.005 mM
[3]
  KD: 0.019 ± 0.019 mM
[4]
  KD: 0.017 ± 0.011 mM
[5]
  KD: 0.0085 ± 0.0014 mM
[6]
  KD: 0.00212 ± 0.00017 mM
[7]
  KD: 0.00167 ± 9e-05 mM
[8]
  KD: 0.00044 ± 6e-05 mM
[9]
  KD: 0.00025 ± 4e-05 mM
[10]
  KD: 0.00032 ± 5e-05 mM
[11]
  KD: 0.00038 ± 6e-05 mM
[12]
  KD: 0.0016 ± 0.0006 mM
[13]
  KD: 0.0029 ± 0.0015 mM
[14]
  KD: 0.0016 ± 0.0007 mM
[15]
  KD: 0.00025 ± 4e-05 mM
[16]
  KD: 0.0005 ± 0.0003 mM
[17]
  KD: 0.0013 ± 0.0005 mM
[18]
  KD: > >100 μM
[19]
  KD: > >100 μM
[20]
  KD: > >100 μM
[21]
  KD: > >100 μM
[22]
  KD: > >100 μM
